Results published in article PMC11045757, “Group 3 medulloblastoma transcriptional networks collapse under domain specific EP300/CBP inhibition” (Nature Communications, 2024).

System: 460 barcoded cancer cell lines
Experiment: PRISM pooled barcoded cancer cell line growth screen, 10-point dose-response, 5 days, AUC
Format: cell-based
Design: scale not given here
Description: Several small molecule inhibitors of distinct protein domains of EP300/CBP are available, though the majority target the histone acetyltransferase domain (HAT) or bromodomain (BRD)[5],[10],[21],[22]. […] We used these tools to investigate the relative contribution of the EP300/CBP BRD or HAT domain to tumor cell growth (Fig. 1a). To do so, we performed 10-point, dose-response growth assays using mixed pools of 460 barcoded cancer cell lines, over five days of treatment in vitro[33],[34]. Growth was measured using an area-under-the-curve (AUC) approach (Supplementary Table 1, Supplementary Fig. 1a). […] Given potential differences in compound penetration and solubility, and to compare the relative cell line and tumor-specific effects of these two compounds in assays performed non-simultaneously, we performed a median normalization of each dataset (Supplementary Table 2).

## CNC(=O)Nc1ccc2c(c1)CCC21OC(=O)N(CC(=O)N(Cc2ccc(F)cc2)C(C)C(F)(F)F)C1=O (centres unmarked) [Compound A485]
22RV1, Prostate Cancer
  AUC: 0.5834
42MGBA, Glioma
  AUC: 0.8468
143B, Osteosarcoma
  AUC: 1
639V, Bladder Cancer
  AUC: 0.8274
647V, Bladder Cancer
  AUC: 0.6672
697, B-cell Leukemia
  AUC: 0.5617
769P, Kidney Cancer
  AUC: 0.6332
5637, Bladder Cancer
  AUC: 0.8843
8305C, Thyroid Cancer
  AUC: 0.7544
A101D, Melanoma
  AUC: 0.9258
A204, Rhabdoid
  AUC: 0.6513
A253, Head and Neck Cancer
  AUC: 0.8228
A375, Melanoma
  AUC: 0.749
A427, Lung Cancer
  AUC: 0.6968
A673, Ewing Sarcoma
  AUC: 1
A1207, Glioblastoma
  AUC: 0.7712
ACHN, Kidney Cancer
  AUC: 0.5417
AGS, Gastric Cancer
  AUC: 0.7849
AM38, Glioblastoma
  AUC: 1
AN3CA, Endometrial/Uterine Cancer
  AUC: 0.8692
AU565, Breast Cancer
  AUC: 0.7944
BDCM, AML
  AUC: 0.9026
BEN, Lung Cancer
  AUC: 0.8869
BFTC905, Bladder Cancer
  AUC: 0.6715
BHT101, Thyroid Cancer
  AUC: 0.6133
BICR16, Head and Neck Cancer
  AUC: 0.6804
BICR18, Head and Neck Cancer
  AUC: 1
BICR22, Head and Neck Cancer
  AUC: 0.7556
BICR31, Head and Neck Cancer
  AUC: 0.7077
BICR56, Head and Neck Cancer
  AUC: 0.6769
BT16, Rhabdoid
  AUC: 1
BT474, Breast Cancer
  AUC: 0.9498
C32, Melanoma
  AUC: 0.9339
C8166, Lymphoma
  AUC: 0.6916
CADOES1, Ewing Sarcoma
  AUC: 0.6865
CAKI1, Kidney Cancer
  AUC: 0.6849
CAL27, Head and Neck Cancer
  AUC: 0.7545
CAL54, Kidney Cancer
  AUC: 0.4813
CAL62, Thyroid Cancer
  AUC: 0.8629
CAL78, Chondrosarcoma
  AUC: 0.8774
CAL120, Breast Cancer
  AUC: 0.8951
CAOV3, Ovarian Cancer
  AUC: 0.8124
CBAGPN, Ewing Sarcoma
  AUC: 0.8343
CCK81, Colon/Colorectal Cancer
  AUC: 0.7195
CHAGOK1, Lung Cancer
  AUC: 0.9372
CHL1, Melanoma
  AUC: 0.6205
CHLA06ATRT, Rhabdoid
  AUC: 1
CHLA10, Ewing Sarcoma
  AUC: 0.7781
CHLA15, Neuroblastoma
  AUC: 0.7188
CHLA57, Ewing Sarcoma
  AUC: 0.9584
CHP212, Neuroblastoma
  AUC: 0.8072
CI1, B-cell Lymphoma
  AUC: 0.7779
CJM, Melanoma
  AUC: 0.6266
CL11, Colon/Colorectal Cancer
  AUC: 0.6639
CL34, Colon/Colorectal Cancer
  AUC: 0.6654
CMLT1, CML
  AUC: 0.6607
COGAR359, Rhabdoid
  AUC: 1
COGE352, Ewing Sarcoma
  AUC: 1
COLO320, Colon/Colorectal Cancer
  AUC: 1
COLO678, Colon/Colorectal Cancer
  AUC: 0.7938
COLO783, Melanoma
  AUC: 0.9045
COLO792, Melanoma
  AUC: 0.7929
CORL23, Lung Cancer
  AUC: 0.831
CORL105, Lung Cancer
  AUC: 0.7616
COV318, Ovarian Cancer
  AUC: 0.7366
COV434, Ovarian Cancer
  AUC: 0.6392
COV644, Ovarian Cancer
  AUC: 0.7528
CW2, Colon/Colorectal Cancer
  AUC: 0.9324
CW9019, Rhabdomyosarcoma
  AUC: 0.6452
DAOY, Medulloblastoma
  AUC: 0.7773
DEL, Lymphoma
  AUC: 0.7007
DETROIT562, Head and Neck Cancer
  AUC: 0.6189
DKMG, Glioblastoma
  AUC: 0.8817
DL, Rhabdoid
  AUC: 0.6996
DMS53, Lung Cancer
  AUC: 0.6382
DMS273, Lung Cancer
  AUC: 0.7762
DND41, T-acute leukemia
  AUC: 0.7502
DU145, Prostate Cancer
  AUC: 0.8463
DU4475, Breast Cancer
  AUC: 0.4233
DV90, Lung Cancer
  AUC: 0.6128
EB1, Lymphoma
  AUC: 1
EBC1, Lung Cancer
  AUC: 0.8735
ECC10, Gastric Cancer
  AUC: 0.8444
ECGI10, Esophageal Cancer
  AUC: 0.8435
EFE184, Endometrial/Uterine Cancer
  AUC: 1
EFM19, Breast Cancer
  AUC: 0.5992
EFO21, Ovarian Cancer
  AUC: 0.9024
EM2, CML
  AUC: 0.902
EN, Endometrial/Uterine Cancer
  AUC: 0.9736
ES2, Ovarian Cancer
  AUC: 0.7477
ESS1, Endometrial/Uterine Cancer
  AUC: 0.9044
EW8, Ewing Sarcoma
  AUC: 0.7371
EWS502, Ewing Sarcoma
  AUC: 0.6563
FADU, Head and Neck Cancer
  AUC: 0.9573
FTC133, Thyroid Cancer
  AUC: 0.8254
FTC238, Thyroid Cancer
  AUC: 0.7484
G292CLONEA141B1, Osteosarcoma
  AUC: 1
G361, Melanoma
  AUC: 0.6803
G401, Rhabdoid
  AUC: 1
G402, Rhabdoid
  AUC: 0.9975
GB1, Glioblastoma
  AUC: 0.7582
GCT, Pleomorphic Sarcoma
  AUC: 0.8933
GI1, Glioblastoma
  AUC: 0.757
GOS3, Glioblastoma
  AUC: 0.9534
GP2D, Colon/Colorectal Cancer
  AUC: 0.7575
GRANTA519, Lymphoma
  AUC: 0.8493
GSS, Gastric Cancer
  AUC: 0.6579
HARA, Lung Cancer
  AUC: 0.7108
HCC33, Lung Cancer
  AUC: 0.908
HCC38, Breast Cancer
  AUC: 0.7435
HCC44, Lung Cancer
  AUC: 0.6558
HCC56, Colon/Colorectal Cancer
  AUC: 0.6212
HCC78, Lung Cancer
  AUC: 0.7931
HCC95, Lung Cancer
  AUC: 0.8823
HCC515, Lung Cancer
  AUC: 0.6901
HCC1419, Breast Cancer
  AUC: 0.6161
HCC1428, Breast Cancer
  AUC: 0.6381
HCC1438, Lung Cancer
  AUC: 0.9014
HCC1806, Breast Cancer
  AUC: 0.8548
HCC1937, Breast Cancer
  AUC: 0.6971
HCC2108, Lung Cancer
  AUC: 1
HCC4006, Lung Cancer
  AUC: 0.7024
HCT116, Colon/Colorectal Cancer
  AUC: 0.9205
HDMYZ, Lymphoma
  AUC: 1
HDQP1, Breast Cancer
  AUC: 0.7294
HEC1B, Endometrial/Uterine Cancer
  AUC: 0.8662
HEC6, Endometrial/Uterine Cancer
  AUC: 0.9741
HEC50B, Endometrial/Uterine Cancer
  AUC: 1
HEL9217, AML
  AUC: 0.6119
HEL, AML
  AUC: 0.5914
HEP3B217, Liver Cancer
  AUC: 0.7234
HEPG2, Liver Cancer
  AUC: 0.8554
HEYA8, Ovarian Cancer
  AUC: 0.9784
HGC27, Gastric Cancer
  AUC: 0.9226
HH, Lymphoma
  AUC: 0.7764
HOS, Osteosarcoma
  AUC: 0.9517
HPBALL, T-acute leukemia
  AUC: 0.8767
HS294T, Melanoma
  AUC: 0.8326
HS766T, Pancreatic Cancer
  AUC: 0.7648
HSC2, Head and Neck Cancer
  AUC: 0.6896
HSC3, Head and Neck Cancer
  AUC: 0.8176
HT29, Colon/Colorectal Cancer
  AUC: 0.7629
HT115, Colon/Colorectal Cancer
  AUC: 1
HT144, Melanoma
  AUC: 0.8574
HT1197, Bladder Cancer
  AUC: 0.9829
HT, B-cell Lymphoma
  AUC: 0.6247
HUCCT1, Bile Duct Cancer
  AUC: 0.8158
HUG1N, Gastric Cancer
  AUC: 0.7448
HUH1, Liver Cancer
  AUC: 0.7158
HUH7, Liver Cancer
  AUC: 1
HUH28, Bile Duct Cancer
  AUC: 0.821
HUPT3, Pancreatic Cancer
  AUC: 0.6895
HUPT4, Pancreatic Cancer
  AUC: 0.6862
HUT78, Lymphoma
  AUC: 0.9441
IALM, Lung Cancer
  AUC: 0.6559
IGR37, Melanoma
  AUC: 0.6843
IGROV1, Ovarian Cancer
  AUC: 0.8359
IM95, Gastric Cancer
  AUC: 0.7117
IPC298, Melanoma
  AUC: 0.8033
ISHIKAWAHERAKLIO02ER, Endometrial/Uterine Cancer
  AUC: 0.9178
ISTMES1, Lung Cancer
  AUC: 0.7574
J82, Bladder Cancer
  AUC: 0.8707
JEKO1, Lymphoma
  AUC: 0.7073
JHH1, Liver Cancer
  AUC: 0.7161
JHH4, Liver Cancer
  AUC: 0.849
JHH5, Liver Cancer
  AUC: 0.5701
JHH7, Liver Cancer
  AUC: 0.6779
JHOC5, Ovarian Cancer
  AUC: 0.8969
JHUEM7, Endometrial/Uterine Cancer
  AUC: 1
JVM3, B-cell Leukemia
  AUC: 0.6743
K029AX, Melanoma
  AUC: 0.7933
KALS1, Glioblastoma
  AUC: 0.6866
KARPAS620, Myeloma
  AUC: 0.9002
KATOIII, Gastric Cancer
  AUC: 0.6951
KCL22, CML
  AUC: 0.6275
KD, Rhabdoid
  AUC: 0.6425
KE37, T-acute leukemia
  AUC: 0.6716
KE39, Gastric Cancer
  AUC: 0.7203
KELLY, Neuroblastoma
  AUC: 0.5242
KMBC2, Bladder Cancer
  AUC: 0.7261
KMS11, Myeloma
  AUC: 0.7944
KMS12BM, Myeloma
  AUC: 0.9973
KMS18, Myeloma
  AUC: 0.7657
KMS21BM, Myeloma
  AUC: 0.9338
KMS28BM, Myeloma
  AUC: 0.817
KMS34, Myeloma
  AUC: 0.8682
KNS42, Glioblastoma
  AUC: 0.8304
KNS60, Glioblastoma
  AUC: 0.7072
KNS62, Lung Cancer
  AUC: 0.8264
KP3, Pancreatic Cancer
  AUC: 0.9118
KPNYN, Neuroblastoma
  AUC: 0.9338
KS1, Glioma
  AUC: 0.6653
KU1919, Bladder Cancer
  AUC: 0.6431
KYM1, Rhabdoid
  AUC: 0.5622
KYSE30, Esophageal Cancer
  AUC: 0.6256
KYSE150, Esophageal Cancer
  AUC: 0.8681
KYSE410, Esophageal Cancer
  AUC: 0.9564
KYSE510, Esophageal Cancer
  AUC: 0.7247
KYSE520, Esophageal Cancer
  AUC: 0.7055
LAMA84, CML
  AUC: 0.6928
LC1SQSF, Lung Cancer
  AUC: 0.7027
LCLC103H, Lung Cancer
  AUC: 0.9264
LI7, Liver Cancer
  AUC: 0.7203
LK2, Lung Cancer
  AUC: 0.847
LMSU, Gastric Cancer
  AUC: 0.7223
LN18, Glioblastoma
  AUC: 0.7097
LNCAPCLONEFGC, Prostate Cancer
  AUC: 0.6119
LOUNH91, Lung Cancer
  AUC: 0.9465
LOVO, Colon/Colorectal Cancer
  AUC: 0.7392
LOXIMVI, Melanoma
  AUC: 0.8926
LS180, Colon/Colorectal Cancer
  AUC: 0.7453
LS411N, Colon/Colorectal Cancer
  AUC: 0.8492
LS1034, Colon/Colorectal Cancer
  AUC: 0.4819
LUDLU1, Lung Cancer
  AUC: 0.9399
LXF289, Lung Cancer
  AUC: 0.6887
M059K, Glioblastoma
  AUC: 0.8677
MALME3M, Melanoma
  AUC: 0.6048
MC116, B-cell Lymphoma
  AUC: 0.8821
MCAS, Ovarian Cancer
  AUC: 0.7202
MCF7, Breast Cancer
  AUC: 0.7287
MDAMB175VII, Breast Cancer
  AUC: 0.9247
MDAMB231, Breast Cancer
  AUC: 0.7703
MDAMB361, Breast Cancer
  AUC: 0.7016
MDAMB436, Breast Cancer
  AUC: 0.9544
MDAMB453, Breast Cancer
  AUC: 0.5182
MDAMB468, Breast Cancer
  AUC: 1
MDST8, Colon/Colorectal Cancer
  AUC: 0.8223
MELHO, Melanoma
  AUC: 0.7944
MESSA, Uterine Sarcoma
  AUC: 0.7132
MFE280, Endometrial/Uterine Cancer
  AUC: 0.7775
